Data: the NIST ThermoML archive (doi:10.1016/j.jct.2013.10.031)

Assay: wn = mass fraction of the nth substance listed
Conditions: Gas, Burnett expansion method

FCC(F)(F)F [1,1,1,2-tetrafluoroethane] + CCC
Conditions | mass density [kg/m3]
304.25 K, 324.7 kPa, w2 = 0.45 | 8.75837
304.25 K, 423.5 kPa, w2 = 0.45 | 11.6666
304.25 K, 550.2 kPa, w2 = 0.45 | 15.5404
304.25 K, 710 kPa, w2 = 0.45 | 20.7007
306.96 K, 235.2 kPa, w2 = 0.65 | 5.2834
306.96 K, 309.8 kPa, w2 = 0.65 | 7.0255
306.96 K, 406.3 kPa, w2 = 0.65 | 9.3418
306.96 K, 530 kPa, w2 = 0.65 | 12.4219
306.96 K, 1095.4 kPa, w2 = 0.55 | 36.0371
306.97 K, 260.5 kPa, w2 = 0.55 | 6.5188
306.97 K, 673.4 kPa, w2 = 0.55 | 20.3802
306.97 K, 686.8 kPa, w2 = 0.65 | 16.5173
306.97 K, 865 kPa, w2 = 0.55 | 27.1004
306.97 K, 880.8 kPa, w2 = 0.65 | 21.9632
306.98 K, 343.1 kPa, w2 = 0.55 | 8.6681
306.98 K, 449.3 kPa, w2 = 0.55 | 11.5262
306.98 K, 519.6 kPa, w2 = 0.55 | 15.3262
307 K, 1113.5 kPa, w2 = 0.65 | 29.2029
307.04 K, 1304.3 kPa, w2 = 0.6 | 37.3883
307.05 K, 823.4 kPa, w2 = 0.6 | 21.1446
307.06 K, 286.9 kPa, w2 = 0.6 | 6.763
307.06 K, 376.9 kPa, w2 = 0.6 | 8.993
307.06 K, 492.8 kPa, w2 = 0.6 | 11.9584
307.06 K, 640 kPa, w2 = 0.6 | 15.901
307.06 K, 1046.1 kPa, w2 = 0.6 | 28.116
308.12 K, 266.9 kPa, w2 = 0.5 | 6.72365
308.12 K, 346.4 kPa, w2 = 0.5 | 8.95632
308.12 K, 447.5 kPa, w2 = 0.5 | 11.9301
308.12 K, 577.6 kPa, w2 = 0.5 | 15.8911
308.12 K, 742.5 kPa, w2 = 0.5 | 21.1679
308.13 K, 944.9 kPa, w2 = 0.5 | 28.196
308.14 K, 1188.3 kPa, w2 = 0.5 | 37.5563
308.15 K, 263.5 kPa, w2 = 0.45 | 6.89941
308.2 K, 1234.2 kPa, w2 = 0.45 | 38.5343
308.21 K, 980.9 kPa, w2 = 0.45 | 28.9282
308.22 K, 346.6 kPa, w2 = 0.45 | 9.18817
308.22 K, 454.6 kPa, w2 = 0.45 | 12.2393
308.22 K, 592.6 kPa, w2 = 0.45 | 16.3032
308.22 K, 766.7 kPa, w2 = 0.45 | 21.7165
308.23 K, 960.1 kPa, w2 = 0.4 | 29.795
308.24 K, 751.6 kPa, w2 = 0.4 | 22.3672
308.24 K, 1208.1 kPa, w2 = 0.4 | 39.6876
308.25 K, 447.1 kPa, w2 = 0.4 | 12.6056
308.25 K, 581.8 kPa, w2 = 0.4 | 16.7913
308.26 K, 197.5 kPa, w2 = 0.4 | 5.33332
308.26 K, 260.1 kPa, w2 = 0.4 | 7.10429
308.26 K, 341.6 kPa, w2 = 0.4 | 9.46322
311.01 K, 747.3 kPa, w2 = 0.65 | 17.8403
311.01 K, 956.7 kPa, w2 = 0.65 | 23.7227
311.01 K, 1206.7 kPa, w2 = 0.65 | 31.545
311.02 K, 256.8 kPa, w2 = 0.65 | 5.8063
311.02 K, 338 kPa, w2 = 0.65 | 7.5979
311.02 K, 383.5 kPa, w2 = 0.55 | 9.3582
311.02 K, 443.1 kPa, w2 = 0.65 | 10.0895
311.02 K, 500.4 kPa, w2 = 0.55 | 12.444
311.02 K, 577.7 kPa, w2 = 0.65 | 13.4164
311.02 K, 837.9 kPa, w2 = 0.55 | 22.003
311.02 K, 1067.2 kPa, w2 = 0.55 | 29.258
311.02 K, 1334.9 kPa, w2 = 0.55 | 38.9056
311.03 K, 650.6 kPa, w2 = 0.55 | 16.547
311.06 K, 1343.8 kPa, w2 = 0.6 | 37.8297
311.07 K, 294.6 kPa, w2 = 0.6 | 6.8432
311.07 K, 386.9 kPa, w2 = 0.6 | 9.1
311.07 K, 505.8 kPa, w2 = 0.6 | 12.1
311.07 K, 657.2 kPa, w2 = 0.6 | 16.0896
311.07 K, 846.4 kPa, w2 = 0.6 | 21.3948
311.07 K, 1076.1 kPa, w2 = 0.6 | 28.4489
312.09 K, 1147.3 kPa, w2 = 0.4 | 36.0778
312.09 K, 1427.9 kPa, w2 = 0.4 | 48.057
312.1 K, 240.2 kPa, w2 = 0.4 | 6.45834
312.1 K, 415.1 kPa, w2 = 0.4 | 11.4592
312.1 K, 542.2 kPa, w2 = 0.4 | 15.2643
312.1 K, 703.7 kPa, w2 = 0.4 | 20.3326
312.1 K, 904.5 kPa, w2 = 0.4 | 27.0838
312.11 K, 316.2 kPa, w2 = 0.4 | 8.60266
312.14 K, 1384.5 kPa, w2 = 0.45 | 44.9611
312.16 K, 1108.9 kPa, w2 = 0.45 | 33.7517
312.17 K, 679.1 kPa, w2 = 0.45 | 19.022
312.17 K, 873 kPa, w2 = 0.45 | 25.3381
312.18 K, 403.4 kPa, w2 = 0.45 | 10.7201
312.18 K, 524.7 kPa, w2 = 0.45 | 14.2797
312.19 K, 309.2 kPa, w2 = 0.45 | 8.04778
312.23 K, 1062.8 kPa, w2 = 0.5 | 30.8635
312.24 K, 293.9 kPa, w2 = 0.5 | 7.35936
312.24 K, 386.2 kPa, w2 = 0.5 | 9.80302
312.24 K, 650.6 kPa, w2 = 0.5 | 17.3937
312.24 K, 835.8 kPa, w2 = 0.5 | 23.1694
312.24 K, 1330.8 kPa, w2 = 0.5 | 41.1106
312.25 K, 502.5 kPa, w2 = 0.5 | 13.0579
315.01 K, 615.4 kPa, w2 = 0.65 | 14.1721
315.01 K, 795.5 kPa, w2 = 0.65 | 18.8451
315.01 K, 1017.2 kPa, w2 = 0.65 | 25.0585
315.01 K, 1280.7 kPa, w2 = 0.65 | 33.3212
315.02 K, 274.4 kPa, w2 = 0.65 | 6.0676
315.02 K, 360.8 kPa, w2 = 0.65 | 8.015
315.02 K, 472.6 kPa, w2 = 0.65 | 10.6578
315.06 K, 855 kPa, w2 = 0.55 | 22.0047
315.06 K, 1090.2 kPa, w2 = 0.55 | 29.2605
315.06 K, 1366.4 kPa, w2 = 0.55 | 38.9077
315.07 K, 509.9 kPa, w2 = 0.55 | 12.4444
315.07 K, 663.2 kPa, w2 = 0.55 | 16.5479
315.08 K, 389.6 kPa, w2 = 0.55 | 9.3584
315.09 K, 296.5 kPa, w2 = 0.55 | 7.0377
315.09 K, 1068.9 kPa, w2 = 0.6 | 27.4868
315.1 K, 289.6 kPa, w2 = 0.6 | 6.6116
315.1 K, 498.6 kPa, w2 = 0.6 | 11.6903
315.1 K, 648.9 kPa, w2 = 0.6 | 15.5452
315.1 K, 837.4 kPa, w2 = 0.6 | 20.6708
315.1 K, 1341.8 kPa, w2 = 0.6 | 36.5492
315.11 K, 380.8 kPa, w2 = 0.6 | 8.7915
315.98 K, 1580.4 kPa, w2 = 0.5 | 50.2225
316.02 K, 947.3 kPa, w2 = 0.4 | 28.0242
316.02 K, 1201.7 kPa, w2 = 0.4 | 37.3297
316.03 K, 251.6 kPa, w2 = 0.4 | 6.68246
316.03 K, 331.4 kPa, w2 = 0.4 | 8.9013
316.03 K, 434.8 kPa, w2 = 0.4 | 11.857
316.03 K, 568 kPa, w2 = 0.4 | 15.7941
316.03 K, 737 kPa, w2 = 0.4 | 21.0384
316.03 K, 1496.5 kPa, w2 = 0.4 | 49.7241
316.07 K, 1279.9 kPa, w2 = 0.5 | 37.6931
316.09 K, 1628 kPa, w2 = 0.45 | 55.7253
316.11 K, 1015.3 kPa, w2 = 0.5 | 28.294
316.11 K, 1322.4 kPa, w2 = 0.45 | 41.8324
316.12 K, 496.6 kPa, w2 = 0.45 | 13.2868
316.12 K, 641.4 kPa, w2 = 0.45 | 17.6986
316.12 K, 825.1 kPa, w2 = 0.45 | 23.5754
316.12 K, 1051.5 kPa, w2 = 0.45 | 31.4039
316.13 K, 382.7 kPa, w2 = 0.45 | 9.97465
316.13 K, 614 kPa, w2 = 0.5 | 15.945
316.13 K, 793.6 kPa, w2 = 0.5 | 21.2396
316.14 K, 359.6 kPa, w2 = 0.5 | 8.98623
316.14 K, 471.1 kPa, w2 = 0.5 | 11.9702
319.94 K, 1816.9 kPa, w2 = 0.4 | 64.6378
319.97 K, 1488.2 kPa, w2 = 0.4 | 48.5219
319.98 K, 935.7 kPa, w2 = 0.4 | 27.3455
319.98 K, 1189.8 kPa, w2 = 0.4 | 36.4256
319.99 K, 326.1 kPa, w2 = 0.4 | 8.68561
319.99 K, 428.1 kPa, w2 = 0.4 | 11.5696
319.99 K, 559.5 kPa, w2 = 0.4 | 15.4113
319.99 K, 726.9 kPa, w2 = 0.4 | 20.5286
320 K, 1619.8 kPa, w2 = 0.5 | 49.4434
320.03 K, 1304.5 kPa, w2 = 0.5 | 37.1152
320.05 K, 1030.2 kPa, w2 = 0.5 | 27.8617
320.07 K, 802.1 kPa, w2 = 0.5 | 20.9155
320.08 K, 360.7 kPa, w2 = 0.5 | 8.84905
320.08 K, 473.5 kPa, w2 = 0.5 | 11.7874
320.08 K, 618.5 kPa, w2 = 0.5 | 15.7015
320.08 K, 1320 kPa, w2 = 0.45 | 39.4284
320.08 K, 1636.4 kPa, w2 = 0.45 | 52.5203
320.09 K, 814.3 kPa, w2 = 0.45 | 22.2206
320.09 K, 1044.1 kPa, w2 = 0.45 | 29.5994
320.1 K, 367.3 kPa, w2 = 0.45 | 9.40149
320.1 K, 481.7 kPa, w2 = 0.45 | 12.5232
320.1 K, 628.6 kPa, w2 = 0.45 | 16.6813
